System: Primary human lung fibroblasts
Experiment: α-SMA positive cell (myofibroblast) count in primary lung fibroblast strains from ILD patients
Type: cell-based
Details: for percentage of α-SMA cells (α-SMA positive cells as a percentage of total cells): pioglitazone 3 μM, 3 days; for percentage of α-SMA cells: 10 days, vehicle 16.5 (SEM 2.7), n=4
Source text: Primary human lung fibroblasts were derived from patients with ILD (Idiopathic Pulmonary Fibrosis or Chronic Hypersensitivity Pneumonitis). Patients had clinical, functional and radiologic features which fulfil the diagnostic criteria for an ILD. Briefly, they had progressive dyspnea, bilateral reticulonodular images on chest roentgenogram, restrictive lung functional impairment, with decreased lung volumes and compliance, and hypoxemia at rest that worsened with exercise. The methods used to isolate and culture the lung fibroblasts and count cells are described in Wang et al, Am. J. Physiol. Lung 277:L1158-1164 (1999). In brief, lung fibroblasts were isolated by trypsin digestion of tissues minced to 1 mm^2 fragments. Fibroblast/myofibroblast strains were established in Dulbecco's modified Eagle's medium (or in Hams F-12 medium) supplemented with 10% fetal calf serum, 200 U/ml penicillin, and […] streptomycin, and were cultured in 24-well plates. All cells were cultured at 37° C. in 95% air-5% carbon dioxide. For these experiments, 2 strains were used. In order to quantify myofibroblast numbers, the myofibroblast marker alpha-smooth muscle actin (α-SMA) was measured. […] In a first experiment, the 2 strains were grown to 70-80% confluence. The cells were exposed to pioglitazone at 3 μM or drug vehicle for 3 days, after which the number of α-SMA positive cells was quantified (sample size 24) as a percentage of total cells. For one strain, the percentage of α-SMA cells was 27 (standard error mean 3.7) with control and 17 (standard error mean 2.5) in the presence of 3 μM pioglitazone. The drug effect was statistically significant (P≦0.01 Student-Newman-Keuls Multiple Comparisons Test). For the second strain, the respective values were 30.6 (standard error of mean 2.7) and 26 (standard error of mean 2.9) although the difference was not statistically significant. In a second experiment, the effect of pioglitazone on the second strain was studied again, but the exposure time was increased to 10 days and the effects of lower and higher concentrations (1 μM and 10 μM) were studied. After 10 days treatment with vehicle, the percentage of α-SMA cells was 16.5 (standard error of mean 2.7); after 10 days treatment with pioglitazone at 1 μM the percentage was 15.3 (standard error of mean 1.8); and after treatment with pioglitazone at 10 μM the percentage of α-SMA cells was 7.4 (standard error of mean 1.8) (all n=4). The reduction in α-SMA cells by 10 μM pioglitazone was significant (P≦0.05 Dunnett Multiple Comparisons Test).

`CCc1ccc(CCOc2ccc(CC3SC(=O)NC3=O)cc2)nc1` (stereo not shown) [pioglitazone] was tested, and the “percentage of α-SMA cells (α-SMA positive cells as a percentage of total cells)” value (first strain, control 27 (SEM 3.7), statistically significant P≦0.01, sample size 24) was 17 (standard error mean 2.5) percentage, the “percentage of α-SMA cells” value (second strain, pioglitazone 1 μM) was 15.3 (standard error of mean 1.8) percentage and the “percentage of α-SMA cells (α-SMA positive cells as a percentage of total cells)” value (second strain, control 30.6 (SEM 2.7), difference not statistically significant) was 26 (standard error of mean 2.9) percentage. The “percentage of α-SMA cells” value (second strain, pioglitazone 10 μM, significant P≦0.05) was 7.4 (standard error of mean 1.8) percentage.
